ChEMBL document CHEMBL5550204, “Discovery of ZJCK-6-46: A Potent, Selective, and Orally Available Dual-Specificity Tyrosine Phosphorylation-Regulated Kinase 1A Inhibitor for the Treatment of Alzheimer's Disease” (J Med Chem, 2024)
The source made the active and inactive calls. No cut-off for these calls is given here.

Columns and labels:
[1] = Acute toxicity in C57BL/6 mouse assessed as change in body weight at 500 mg/kg,po observed after 14 days; assay type: organism-based; settings: in vivo, 336 h, time 14 day
[2] = molecular target: Dual specificity tyrosine-phosphorylation-regulated kinase 4 (Homo sapiens) (UniProt Q9NR20); assay: Inhibition of DYRK4 (unknown origin) at 1 uM preincubated with enzyme for 10 mins followed by substrate and ATP addition measured after 60 mins by ADP-Glo reagent based assay relative to control; settings: time 70.0 min
[3] = molecular target: T1, CYP3A4 (Homo sapiens, UniProt P08684); assay: Inhibition of CYP3A4 in human liver microsomes using midazolam as substrate at 10 uM preincubated for 10 mins followed by NADPH addition and measured after 40 mins by LC-MS/MS analysis relative to control; assay type: ADME, Microsome; settings: probe midazolam, time 50 min
[4] = MRT (0 to infinity) in Sprague-Dawley rat at 10 mg/kg,po measured upto 24 hrs by LC-MS/MS analysis; assay type: ADME, organism-based; settings: in vivo
[5] = molecular target: CDK9/cyclin T1 (Homo sapiens, UniProt P50750); assay: Inhibition of CDK9/Cyclin T1 (unknown origin) preincubated with enzyme for 10 mins followed by substrate and ATP addition measured after 60 mins by ADP-Glo reagent based assay; assay type: protein-complex assay
[6] = Acute toxicity in C57BL/6 mouse assessed as histopathological change in lung at 500 mg/kg,po observed after 14 days by hematoxylin-eosin staining based analysis; assay type: organism-based; settings: in vivo, 336 h, time 14 day
[7] = Drug concentration in Sprague-Dawley rat plasma at 10 mg/kg,po measured after 1 hr by LC-MS/MS analysis; assay type: ADME, organism-based
[8] = molecular target: Dual specificity tyrosine-phosphorylation-regulated kinase 4 (Homo sapiens, UniProt Q9NR20); assay: Inhibition of DYRK4 (unknown origin) preincubated with enzyme for 10 mins followed by substrate and ATP addition measured after 60 mins by ADP-Glo reagent based assay
[9] = molecular target: Dual specificity tyrosine-phosphorylation-regulated kinase 2 (Homo sapiens) (UniProt Q92630); assay: Inhibition of DYRK2 (unknown origin) at 1 uM preincubated with enzyme for 10 mins followed by substrate and ATP addition measured after 60 mins by ADP-Glo reagent based assay relative to control; settings: time 70.0 min
[10] = AUC (0 to t) in Sprague-Dawley rat at 2 mg/kg,iv measured upto 24 hrs by LC-MS/MS analysis; assay type: ADME, organism-based; settings: in vivo
[11] = system: Mus musculus; assay: Antialzheimer activity in okadaic acid-induced cognitive impairment C57BL/6 mouse assessed as decrease in memory deficit at 10 to 30 mg/kg,po once daily for 2 weeks by Morris water maze test; assay type: functional, organism-based; settings: dose 10-30 mg/kg
[12] = Acute toxicity in C57BL/6 mouse assessed as change in spleen weight at 500 mg/kg,po observed after 14 days; assay type: organism-based; settings: in vivo, 336 h, time 14 day
[13] = system: Mus musculus; assay: Antialzheimer activity in okadaic acid-induced cognitive impairment C57BL/6 mouse assessed as reduction in nerve damage in hippocampal DG region at 10 to 30 mg/kg,po once daily for 2 weeks by Nissl staining based microscopy; assay type: functional, organism-based; settings: dose 10-30 mg/kg
[14] = system: Mus musculus; assay: Antialzheimer activity in okadaic acid-induced cognitive impairment C57BL/6 mouse assessed as downregulation of Tau phosphorylation at Thr212 residue in hippocampus at 10 to 30 mg/kg,po once daily for 2 weeks by ELISA; assay type: functional, organism-based; settings: dose 10-30 mg/kg
[15] = molecular target: Dual specificity tyrosine-phosphorylation-regulated kinase 3 (Homo sapiens, UniProt O43781); assay: Inhibition of DYRK3 (unknown origin) preincubated with enzyme for 10 mins followed by substrate and ATP addition measured after 60 mins by ADP-Glo reagent based assay
[16] = molecular target: Cytochrome P450 2C9 (Homo sapiens, UniProt P11712); assay: Inhibition of CYP2C9 in human liver microsomes using diclofenac as substrate preincubated for 10 mins followed by NADPH addition and measured after 40 mins by LC-MS/MS analysis; assay type: ADME, Microsome
[17] = Acute toxicity in C57BL/6 mouse assessed as histopathological change in liver at 500 mg/kg,po observed after 14 days by hematoxylin-eosin staining based analysis; assay type: organism-based; settings: in vivo, 336 h, time 14 day
[18] = Acute toxicity in C57BL/6 mouse assessed as change in lung weight at 500 mg/kg,po observed after 14 days; assay type: organism-based; settings: in vivo, 336 h, time 14 day
[19] = Cmax in Sprague-Dawley rat at 10 mg/kg,po measured upto 24 hrs by LC-MS/MS analysis; assay type: ADME, organism-based; settings: in vivo
[20] = Drug concentration in Sprague-Dawley rat brain at 10 mg/kg,po measured after 2 hrs by LC-MS/MS analysis; assay type: ADME, organism-based; settings: read-out: Ct
[21] = molecular target: T1, CYP3A4; assay: Inhibition of CYP3A4 in human liver microsomes using testosterone as substrate at 10 uM preincubated for 10 mins followed by NADPH addition and measured after 40 mins by LC-MS/MS analysis relative to control; assay type: ADME, Microsome; settings: probe testosterone, time 50 min
[22] = system: SH-SY5Y; assay: Cytotoxicity against human SH-SY5Y cells expressing human Tau P301L mutant at 0.15625 to 10 uM incubated for 24 hrs by MTT assay; assay type: functional, cell-based; settings: dose 0.15625-10 µM
[23] = Apparent permeability across apical to basolateral side in dog MDCK-MDR1 cells at 5 uM incubated for 90 mins by LC-MS/MS analysis; assay type: ADME, cell-based, Canis lupus familiaris
[24] = molecular target: CYP2C19 (Homo sapiens, UniProt P33261); assay: Inhibition of CYP2C19 in human liver microsomes using mephenytoin as substrate at 10 uM preincubated for 10 mins followed by NADPH addition and measured after 40 mins by LC-MS/MS analysis relative to control; assay type: ADME, Microsome; settings: probe mephenytoin, time 50 min
[25] = system: Mus musculus; assay: Antialzheimer activity in okadaic acid-induced cognitive impairment C57BL/6 mouse assessed as downregulation of Tau phosphorylation at Thr212 residue in temporal cortex at 10 to 30 mg/kg,po once daily for 2 weeks by ELISA; assay type: functional, organism-based; settings: dose 10-30 mg/kg
[26] = Permeability of compound at pH 7.4 at 10 uM incubated for 16 hrs by PAMPA-BBB assay based LC-MS/MS analysis
[27] = system: HEK-293T; assay: Cytotoxicity against human HEK293T cells expressing human Tau P301L mutant at 20 uM incubated for 24 hrs by MTT assay; assay type: toxicity, cell-based
[28] = molecular target: Dual specificity protein kinase CLK1 (Homo sapiens, UniProt P49759); assay: Inhibition of CLK1 (unknown origin) at 1 uM preincubated with enzyme for 10 mins followed by substrate and ATP addition measured after 60 mins by ADP-Glo reagent based assay relative to control; settings: time 70.0 min
[29] = Toxicity in okadaic acid-induced cognitive impairment C57BL/6 mouse assessed as change in serum AST level at 10 to 30 mg/kg,po once daily for 2 weeks; assay type: organism-based; settings: in vivo, 336 h, dose 10-30 mg/kg
[30] = Drug concentration in Sprague-Dawley rat plasma at 10 mg/kg,po measured after 4 hrs by LC-MS/MS analysis; assay type: ADME, organism-based
[31] = MRT (0 to t) in Sprague-Dawley rat at 10 mg/kg,po measured upto 24 hrs by LC-MS/MS analysis; assay type: ADME, organism-based; settings: in vivo
[32] = system: Mus musculus; assay: Antialzheimer activity in okadaic acid-induced cognitive impairment C57BL/6 mouse assessed as downregulation of Tau phosphorylation at Thr212 residue in hippocampal CA1 region at 10 to 30 mg/kg,po once daily for 2 weeks by immunohistochemical staining analysis; assay type: functional, organism-based; settings: dose 10-30 mg/kg
[33] = Toxicity in okadaic acid-induced cognitive impairment C57BL/6 mouse assessed as change in serum TBIL level at 10 to 30 mg/kg,po once daily for 2 weeks; assay type: organism-based; settings: in vivo, 336 h, dose 10-30 mg/kg

T1 sequence (P08684 whole entry): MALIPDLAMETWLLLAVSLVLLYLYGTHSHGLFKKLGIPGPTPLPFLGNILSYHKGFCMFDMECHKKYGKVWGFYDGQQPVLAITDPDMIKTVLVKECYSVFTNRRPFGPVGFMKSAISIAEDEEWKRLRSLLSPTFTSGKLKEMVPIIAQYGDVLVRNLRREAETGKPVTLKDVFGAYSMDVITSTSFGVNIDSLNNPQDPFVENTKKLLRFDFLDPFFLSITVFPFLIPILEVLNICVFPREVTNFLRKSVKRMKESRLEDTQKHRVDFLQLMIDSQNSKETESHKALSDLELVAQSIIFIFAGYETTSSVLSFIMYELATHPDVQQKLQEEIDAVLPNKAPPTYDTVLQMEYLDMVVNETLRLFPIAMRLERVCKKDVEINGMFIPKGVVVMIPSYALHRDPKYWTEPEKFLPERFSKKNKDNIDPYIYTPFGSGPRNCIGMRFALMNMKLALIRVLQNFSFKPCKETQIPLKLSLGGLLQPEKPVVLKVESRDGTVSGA
Sequence of Cytochrome P450 2C9 (P11712 whole entry): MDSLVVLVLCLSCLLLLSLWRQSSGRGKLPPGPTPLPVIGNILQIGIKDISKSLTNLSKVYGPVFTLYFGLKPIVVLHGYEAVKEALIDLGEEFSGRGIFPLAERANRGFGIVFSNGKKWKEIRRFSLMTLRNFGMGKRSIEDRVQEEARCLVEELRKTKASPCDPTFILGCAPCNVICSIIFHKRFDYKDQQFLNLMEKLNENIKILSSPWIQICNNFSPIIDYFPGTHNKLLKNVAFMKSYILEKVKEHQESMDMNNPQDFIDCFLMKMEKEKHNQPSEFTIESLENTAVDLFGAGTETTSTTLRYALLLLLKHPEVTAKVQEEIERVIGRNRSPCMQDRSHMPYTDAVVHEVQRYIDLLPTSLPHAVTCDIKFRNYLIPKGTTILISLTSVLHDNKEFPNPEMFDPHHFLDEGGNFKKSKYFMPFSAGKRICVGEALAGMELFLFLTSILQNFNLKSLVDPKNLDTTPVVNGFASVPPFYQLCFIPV
Sequence of Dual specificity tyrosine-phosphorylation-regulated kinase 4 (Q9NR20 whole entry): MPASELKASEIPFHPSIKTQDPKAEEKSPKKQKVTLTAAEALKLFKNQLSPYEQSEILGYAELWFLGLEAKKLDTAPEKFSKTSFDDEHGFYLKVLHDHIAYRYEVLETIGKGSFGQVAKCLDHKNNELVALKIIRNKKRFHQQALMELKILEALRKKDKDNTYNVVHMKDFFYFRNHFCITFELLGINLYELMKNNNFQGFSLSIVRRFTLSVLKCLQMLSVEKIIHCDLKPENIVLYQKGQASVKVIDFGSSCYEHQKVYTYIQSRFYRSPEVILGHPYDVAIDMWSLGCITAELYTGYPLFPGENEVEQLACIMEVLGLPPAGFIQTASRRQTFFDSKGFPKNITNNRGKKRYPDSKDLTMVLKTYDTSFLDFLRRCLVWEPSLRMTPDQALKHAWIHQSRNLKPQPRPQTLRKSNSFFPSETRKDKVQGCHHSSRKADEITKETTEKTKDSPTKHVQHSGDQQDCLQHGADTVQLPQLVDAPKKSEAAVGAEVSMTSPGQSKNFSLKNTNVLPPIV
Sequence of Dual specificity tyrosine-phosphorylation-regulated kinase 4 (Homo sapiens) (Q9NR20 whole entry): as above
Sequence of Dual specificity protein kinase CLK1 (P49759 whole entry, looked up): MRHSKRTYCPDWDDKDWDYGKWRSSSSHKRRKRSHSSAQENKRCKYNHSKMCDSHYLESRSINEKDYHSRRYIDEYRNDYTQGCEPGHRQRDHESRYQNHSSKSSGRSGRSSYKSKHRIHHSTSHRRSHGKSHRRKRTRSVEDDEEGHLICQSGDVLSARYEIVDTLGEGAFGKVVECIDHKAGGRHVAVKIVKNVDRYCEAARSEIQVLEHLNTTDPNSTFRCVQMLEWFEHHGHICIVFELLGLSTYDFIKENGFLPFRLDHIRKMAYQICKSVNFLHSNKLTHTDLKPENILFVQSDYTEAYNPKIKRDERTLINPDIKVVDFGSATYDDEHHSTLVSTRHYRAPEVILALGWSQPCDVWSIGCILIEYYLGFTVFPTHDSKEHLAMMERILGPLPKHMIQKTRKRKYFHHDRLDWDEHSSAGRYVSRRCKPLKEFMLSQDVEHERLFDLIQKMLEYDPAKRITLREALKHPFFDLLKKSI
Sequence of CDK9/cyclin T1 (O60563 whole entry): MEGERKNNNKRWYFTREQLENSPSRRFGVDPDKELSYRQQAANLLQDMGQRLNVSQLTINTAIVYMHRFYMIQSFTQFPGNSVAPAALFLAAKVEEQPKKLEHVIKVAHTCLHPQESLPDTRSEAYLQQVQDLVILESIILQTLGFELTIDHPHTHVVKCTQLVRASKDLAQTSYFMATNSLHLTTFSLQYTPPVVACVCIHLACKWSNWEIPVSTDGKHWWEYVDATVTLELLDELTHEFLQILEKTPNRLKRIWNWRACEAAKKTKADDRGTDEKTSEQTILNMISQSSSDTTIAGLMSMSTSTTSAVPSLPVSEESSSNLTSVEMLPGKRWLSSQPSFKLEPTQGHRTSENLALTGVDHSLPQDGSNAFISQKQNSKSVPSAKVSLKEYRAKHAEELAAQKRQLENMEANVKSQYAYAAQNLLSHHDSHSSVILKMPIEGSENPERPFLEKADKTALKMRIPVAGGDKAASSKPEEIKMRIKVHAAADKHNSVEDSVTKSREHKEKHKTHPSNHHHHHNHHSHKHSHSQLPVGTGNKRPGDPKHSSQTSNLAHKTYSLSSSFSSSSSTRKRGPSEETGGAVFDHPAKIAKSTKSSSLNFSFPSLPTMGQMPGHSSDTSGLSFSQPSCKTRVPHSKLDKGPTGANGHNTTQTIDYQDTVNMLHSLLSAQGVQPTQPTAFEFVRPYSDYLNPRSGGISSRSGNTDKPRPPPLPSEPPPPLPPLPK
Sequence of CDK9/cyclin T1 (P50750 whole entry): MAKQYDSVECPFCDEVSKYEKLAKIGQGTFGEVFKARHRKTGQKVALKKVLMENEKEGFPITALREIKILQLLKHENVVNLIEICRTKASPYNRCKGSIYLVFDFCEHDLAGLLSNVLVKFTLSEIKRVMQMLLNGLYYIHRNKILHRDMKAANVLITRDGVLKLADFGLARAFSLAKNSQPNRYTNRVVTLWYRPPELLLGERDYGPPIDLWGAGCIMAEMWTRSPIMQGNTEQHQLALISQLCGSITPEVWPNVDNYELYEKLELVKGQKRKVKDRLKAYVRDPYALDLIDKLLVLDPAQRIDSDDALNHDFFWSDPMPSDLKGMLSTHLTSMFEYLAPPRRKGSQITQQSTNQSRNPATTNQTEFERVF
Sequence of CYP2C19 (P33261 whole entry): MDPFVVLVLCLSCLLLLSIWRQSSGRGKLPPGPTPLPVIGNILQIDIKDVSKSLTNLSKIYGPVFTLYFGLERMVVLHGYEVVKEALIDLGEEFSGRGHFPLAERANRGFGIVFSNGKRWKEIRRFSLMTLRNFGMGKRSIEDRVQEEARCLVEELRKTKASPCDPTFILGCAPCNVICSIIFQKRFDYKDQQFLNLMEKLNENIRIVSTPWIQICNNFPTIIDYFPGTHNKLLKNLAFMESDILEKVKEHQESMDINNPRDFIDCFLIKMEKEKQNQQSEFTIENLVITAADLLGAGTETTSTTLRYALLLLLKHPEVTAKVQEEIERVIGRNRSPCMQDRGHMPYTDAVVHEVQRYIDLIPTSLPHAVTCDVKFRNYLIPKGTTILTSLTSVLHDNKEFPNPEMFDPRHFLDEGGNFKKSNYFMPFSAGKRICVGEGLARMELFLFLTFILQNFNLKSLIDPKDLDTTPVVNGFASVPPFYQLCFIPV
Sequence of Dual specificity tyrosine-phosphorylation-regulated kinase 3 (O43781 whole entry): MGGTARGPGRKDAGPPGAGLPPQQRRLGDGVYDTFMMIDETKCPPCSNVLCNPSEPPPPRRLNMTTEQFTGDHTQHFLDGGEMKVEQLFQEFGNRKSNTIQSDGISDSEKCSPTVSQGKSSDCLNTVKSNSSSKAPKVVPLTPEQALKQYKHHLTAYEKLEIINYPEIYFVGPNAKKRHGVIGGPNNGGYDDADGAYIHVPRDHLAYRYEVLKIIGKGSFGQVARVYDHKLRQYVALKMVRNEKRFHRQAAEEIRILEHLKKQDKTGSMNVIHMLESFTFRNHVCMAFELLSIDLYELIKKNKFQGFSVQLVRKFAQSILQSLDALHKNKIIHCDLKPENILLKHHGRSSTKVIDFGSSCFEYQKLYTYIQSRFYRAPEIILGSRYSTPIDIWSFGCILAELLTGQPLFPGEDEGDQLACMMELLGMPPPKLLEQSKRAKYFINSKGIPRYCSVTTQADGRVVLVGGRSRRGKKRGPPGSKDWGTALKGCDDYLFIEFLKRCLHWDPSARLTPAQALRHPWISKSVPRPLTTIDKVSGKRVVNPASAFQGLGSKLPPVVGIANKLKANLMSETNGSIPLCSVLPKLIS
Sequence of Dual specificity tyrosine-phosphorylation-regulated kinase 2 (Homo sapiens) (Q92630 whole entry): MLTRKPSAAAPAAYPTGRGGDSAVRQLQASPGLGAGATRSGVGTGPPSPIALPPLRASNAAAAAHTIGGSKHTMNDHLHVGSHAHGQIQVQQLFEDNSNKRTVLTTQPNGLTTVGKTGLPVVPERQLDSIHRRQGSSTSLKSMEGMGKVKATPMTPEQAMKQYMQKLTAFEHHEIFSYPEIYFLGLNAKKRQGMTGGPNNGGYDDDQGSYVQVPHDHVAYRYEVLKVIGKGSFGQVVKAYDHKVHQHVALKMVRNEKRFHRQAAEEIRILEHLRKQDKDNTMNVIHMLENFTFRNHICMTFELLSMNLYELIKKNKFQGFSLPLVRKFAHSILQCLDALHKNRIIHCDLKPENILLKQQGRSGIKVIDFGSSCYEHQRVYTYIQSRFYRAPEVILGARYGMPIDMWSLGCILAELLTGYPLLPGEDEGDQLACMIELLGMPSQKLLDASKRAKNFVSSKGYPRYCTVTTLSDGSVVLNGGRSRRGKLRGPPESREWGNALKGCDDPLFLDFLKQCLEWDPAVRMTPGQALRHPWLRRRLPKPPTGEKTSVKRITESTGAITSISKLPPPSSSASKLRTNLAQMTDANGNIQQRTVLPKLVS

## Cc1ccc2c(-c3ccc4ncnc(N[C@H](CO)c5ccccc5)c4c3)c[nH]c2n1
[1]
  Activity: Non-Toxic
[2]
  inhibition: 102%
[3]
  inhibition at 40 min, 10 µM: 33.1%
[4]
  MRT inf: 5.98 h
[5]
  IC50: > 10000 nM
[6]
  Activity: Non-Toxic
[7]
  concentration at 1 h: 353 ng/mL
[8]
  IC50: 401 nM
[9]
  inhibition: 105%
[10]
  AUC(0-t) at 24 h: 1500 ng·h/mL
[11]
  Activity: Active
[12]
  Activity: Non-Toxic
[13]
  Activity: Active
[14]
  Activity: Active
[15]
  IC50: 17.5 nM
[16]
  IC50: 240 nM
[17]
  Activity: Non-Toxic
[18]
  Activity: Non-Toxic
[19]
  Cmax: 230 ng/mL
[20]
  concentration at 2 h: 16.8 ng/g
[21]
  inhibition at 40 min, 10 µM: 63.3%
[22]
  Activity: inactive
[23]
  Papp A→B at […], 5 µM: 2.67 ×10⁻⁶ cm/s
[24]
  inhibition at 40 min, 10 µM: 96.9%
[25]
  Activity: Active
[26]
  Papp at 16 h, 10 µM: 13.4 ×10⁻⁶ cm/s
[27]
  Activity: Toxic
[28]
  inhibition: 99.5%
[29]
  Activity: Non-Toxic
[30]
  concentration at 4 h: 254 ng/mL
[31]
  MRT last at 24 h: 5.77 h
[32]
  Activity: Active
[33]
  Activity: Non-Toxic
